Test results taken from patent US20150342954A1, “2-BENZYL, 3-(PYRIMIDIN-2-YL) SUBSTITUTED PYRAZOLES USEFUL AS SGC STIMULATORS” (IRONWOOD PHARMACEUTICALS, INC., priority 2011, published 2015).
Read-outs that look alike come from different tables or passages of the source.

Assays:
[1] = target: T1, Human soluble guanylate cyclase enzyme (hsGC) (Homo sapiens, UniProt Q02108+Q02153); experiment: Purified human sGC enzyme activity assay (without SNP); type: biochemical; settings: compound at 30 μM, absence of SNP, fold over DMSO control
T1 construct: purchased Enzo Inc. ALX-201-177
T1 sequence (Q02153 1-619): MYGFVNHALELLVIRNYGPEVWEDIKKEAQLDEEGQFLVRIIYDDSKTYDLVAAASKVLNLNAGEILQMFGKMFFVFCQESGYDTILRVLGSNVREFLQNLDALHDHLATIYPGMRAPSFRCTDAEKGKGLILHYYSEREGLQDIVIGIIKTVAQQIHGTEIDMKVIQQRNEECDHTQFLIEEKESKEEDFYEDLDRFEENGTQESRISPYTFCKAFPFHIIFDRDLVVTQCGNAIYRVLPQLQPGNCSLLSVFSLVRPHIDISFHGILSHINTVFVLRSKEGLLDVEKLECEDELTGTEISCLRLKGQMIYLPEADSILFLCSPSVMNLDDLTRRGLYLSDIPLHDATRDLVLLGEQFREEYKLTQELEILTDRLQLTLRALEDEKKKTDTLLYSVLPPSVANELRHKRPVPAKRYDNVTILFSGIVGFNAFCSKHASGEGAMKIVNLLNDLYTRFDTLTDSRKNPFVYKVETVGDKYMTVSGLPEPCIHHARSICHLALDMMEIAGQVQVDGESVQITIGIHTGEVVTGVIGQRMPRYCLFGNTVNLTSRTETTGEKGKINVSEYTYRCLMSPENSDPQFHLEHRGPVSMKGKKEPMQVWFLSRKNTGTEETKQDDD
T1 sequence (Q02108 1-690): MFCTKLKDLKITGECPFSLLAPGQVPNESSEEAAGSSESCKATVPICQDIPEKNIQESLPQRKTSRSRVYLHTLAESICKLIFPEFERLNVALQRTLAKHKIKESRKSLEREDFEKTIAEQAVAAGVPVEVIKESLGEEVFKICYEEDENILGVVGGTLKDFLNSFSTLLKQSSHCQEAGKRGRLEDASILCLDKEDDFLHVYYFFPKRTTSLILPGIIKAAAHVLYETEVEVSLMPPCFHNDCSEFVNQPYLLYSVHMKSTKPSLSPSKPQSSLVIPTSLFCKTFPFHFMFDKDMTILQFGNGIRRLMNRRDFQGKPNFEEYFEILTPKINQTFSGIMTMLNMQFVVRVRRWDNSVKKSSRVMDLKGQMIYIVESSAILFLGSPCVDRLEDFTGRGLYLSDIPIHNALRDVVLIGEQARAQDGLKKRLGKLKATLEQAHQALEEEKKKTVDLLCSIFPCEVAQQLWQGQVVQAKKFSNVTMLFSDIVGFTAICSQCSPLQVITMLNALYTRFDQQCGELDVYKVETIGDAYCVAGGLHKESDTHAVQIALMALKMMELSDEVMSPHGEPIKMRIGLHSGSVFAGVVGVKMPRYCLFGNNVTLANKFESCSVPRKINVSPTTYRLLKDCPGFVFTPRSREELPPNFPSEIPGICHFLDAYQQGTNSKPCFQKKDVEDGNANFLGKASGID
How it was run: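 Purified human sGC (5 ng) in 0.1 M Tris pH 8.0, 2 mM DTT, 2 mM MgCl2, 300 μM GTP, 1 mM IBMX, with compound at 10 or 30 μM final, 30 min at 37° C.; methanol-stopped. cGMP quantified against a standard curve; specific activity expressed as fold-change over DMSO control.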

[2] = target: T2, soluble guanylate cyclase (sGC) (Homo sapiens, UniProt Q02108+Q02153); experiment: sGC-HEK-cGMP assay (run with SNP incubation); type: cell-based; settings: for Emax: 10 μM SNP, 100% = 30 μM BAY 41-2272 with 10 μM SNP, read-out: HEK assay Emax-unconstrained (Percent); for HEK MEC-10: concentration that would elicit 10% of the Emax in the presence of 10 μM SNP; for EC50: in the presence of 10 μM SNP
T2 construct: endogenously expressing soluble guanylate cyclase (sGC); endogenous in cells; host or cells: HEK293
T2 sequence (Q02153 1-619): T1 sequence (Q02153 1-619)
T2 sequence (Q02108 1-690): T1 sequence (Q02108 1-690)
How it was run: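 HEK293 cells with endogenous sGC were pre-treated 15 min at 37 °C with 0.5 mM IBMX, then exposed to test compound plus sodium nitroprusside for 10 min at 37 °C. Cells were lysed in 0.1 M HCl (4 °C, 30 min), and cGMP was quantified by LC/MS against a standard curve. EC50 values came from concentration-response curves.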

[3] = target: T1, Human soluble guanylate cyclase enzyme (hsGC); experiment: Purified human sGC enzyme synergy assay in the presence of 1 μM sodium nitroprusside (SNP); type: biochemical; settings: compound at 30 μM, presence of 1 μM SNP
How it was run: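 Purified hsGC (5 ng) incubated 30 min at 37 °C with compound (10 or 30 μM final) in Tris pH 8.0, 300 μM GTP, 1 mM IBMX, 2 mM MgCl2, with or without 1 μM SNP; stopped with cold methanol. cGMP quantified against standard curve; specific activity expressed as fold-change over DMSO control.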

[4] = Table 3B, top of concentration-response curve not fitted to 100%
[5] = Table 3E, read-out: HEK assay EC50
[6] = top of concentration-response curve not fitted to 100%, Table 3E, read-out: HEK assay EC50-unconstrained
[7] = Table 3A, top of concentration-response curve not fitted to 100%
[8] = Table 3D, read-out: HEK assay EC50
[9] = top of concentration-response curve not fitted to 100%, Table 3D, read-out: HEK assay EC50-unconstrained

| Compound | Enzyme Activity (increase at 30 μM without SNP) ([1]; Table 5B) | Emax [2, 4] [%] | HEK MEC-10 ([2]; Table 3E) | EC50 [2, 5] [µM] | EC50 [2, 6] [µM] | Enzyme Activity (increase at 30 μM with SNP) ([3]; Table 5B) | Enzyme Activity (increase at 30 μM without SNP) ([1]; Table 5A) | Emax [2, 7] [%] | HEK MEC-10 ([2]; Table 3D) | EC50 [2, 8] [µM] | EC50 [2, 9] [µM] | Enzyme Activity (increase at 30 μM with SNP) ([3]; Table 5A) |
| --- | --- | --- | --- | --- | --- | --- | --- | --- | --- | --- | --- | --- |
| Oc1nc(-c2cc(-c3ccon3)n(Cc3ccccc3F)n2)ncc1-c1ccsc1 [Compound 45] |  |  |  |  |  |  | A (no increase to <2 fold increase) | 10 to 20 | E (10 to 50 μM) | 100 to 300 | 5 to 10 | B (2 to <5 fold increase) |
| Oc1nc(-c2cc(-c3ccon3)n(Cc3ccccc3F)n2)ncc1-c1nccs1 [Compound 42] |  |  |  |  |  |  | B (2 to <5 fold increase) | 40 to 60 | C (0.1 to <1 μM) | < 20 | 0.5 to 1 | D (10 or <20 fold increase) |
| O=c1[nH]c(-c2cc(-c3ccon3)n(Cc3ccccc3F)n2)ncc1S(=O)(=O)N1CCOCC1 [Compound 60] |  |  |  |  |  |  | B (2 to <5 fold increase) | 80 to 100 | C (0.1 to <1 μM) | < 20 | 0.5 to 1 | D (10 or <20 fold increase) |
| O=c1[nH]c(-c2cc(-c3ccon3)n(Cc3cccnc3F)n2)ncc1F [Compound 67] |  |  |  |  |  |  | A (no increase to <2 fold increase) | 20 to 40 | B (0.01 to <0.1 μM) | 40 to 60 | 0.01 to 0.5 | B (2 to <5 fold increase) |
| CC1(C(=O)Nc2cnc(-c3cc(-c4ncco4)n(Cc4ccccc4F)n3)nc2N)CC1(F)F (stereo not shown) [Compound 55] |  |  |  |  |  |  | C (5 to <10 fold increase) | 100 to 120 | C (0.1 to <1 μM) | < 20 | 1 to 5 | F (>30 fold increase) |
| Oc1nc(-c2cc(-c3ccon3)n(Cc3ccccc3F)n2)ncc1-c1ccccn1 [Compound 43] |  |  |  |  |  |  | B (2 to <5 fold increase) | 40 to 60 | C (0.1 to <1 μM) | < 20 | 1 to 5 | D (10 or <20 fold increase) |
| Oc1nc(-c2cc(-c3ccon3)n(Cc3ccccc3F)n2)ncc1Sc1ccccc1 [Compound 39, 2-(1-(2-fluorobenzyl)-5-(isoxazol-3-yl)-1H-pyrazol-3-yl)-5-(phenylthio)pyrimidin-4-ol] |  |  |  |  |  |  | D (10 or <20 fold increase) | 100 to 120 | A (0.001 to <0.01 μM) | < 20 | 0.01 to 0.5 | E (20 to 30 fold increase) |
| Fc1ccccc1Cn1nc(-c2ncc(Br)c(Cl)n2)cc1-c1ccon1 [Compound 52] |  |  |  |  |  |  | B (2 to <5 fold increase) | 40 to 60 | D (1 to <10 μM) | 60 to 100 | 10 to 50 | D (10 or <20 fold increase) |
| CSc1cnc(-c2cc(-c3ccon3)n(Cc3ccccc3F)n2)nc1O [Compound 29, 2-(1-(2-fluorobenzyl)-5-(isoxazol-3-yl)-1H-pyrazol-3-yl)-5-(methylthio)pyrimidin-4-ol] |  |  |  |  |  |  | B (2 to <5 fold increase) | 40 to 60 | E (10 to 50 μM) | < 20 | 5 to 10 | D (10 or <20 fold increase) |

Further lines, results first:

| Enzyme Activity (increase at 30 μM without SNP) ([1]; Table 5B) | Emax [2, 4] [%] | HEK MEC-10 ([2]; Table 3E) | EC50 [2, 5] [µM] | EC50 [2, 6] [µM] | Enzyme Activity (increase at 30 μM with SNP) ([3]; Table 5B) | Enzyme Activity (increase at 30 μM without SNP) ([1]; Table 5A) | Emax [2, 7] [%] | HEK MEC-10 ([2]; Table 3D) | EC50 [2, 8] [µM] | EC50 [2, 9] [µM] | Enzyme Activity (increase at 30 μM with SNP) ([3]; Table 5A) | Compound |
| --- | --- | --- | --- | --- | --- | --- | --- | --- | --- | --- | --- | --- |
| A (no increase to <2 fold increase) | 60 to 80 | C (0.1 to <1 μM) | 60 to 100 | 1 to 5 | D (10 or <20 fold increase) |  |  |  |  |  |  | Nc1ccnc(-c2cc(-c3ccon3)n(Cc3ccc(F)cc3F)n2)n1 [Compound 71] |
| C (5 to <10 fold increase) | 60 to 80 | B (0.01 to <0.1 μM) | 60 to 100 | 1 to 5 | D (10 or <20 fold increase) |  |  |  |  |  |  | Oc1ccnc(-c2cc(-c3ccon3)n(Cc3cccc(F)c3F)n2)n1 [Compound 84] |
| D (10 or <20 fold increase) | 80 to 100 | B (0.01 to <0.1 μM) | 60 to 100 | 0.01 to 0.5 | E (20 to 30 fold increase) |  |  |  |  |  |  | Oc1nc(-c2cc(-c3ccon3)n(Cc3cccc(F)c3F)n2)ncc1Cl [Compound 76] |
| C (5 to <10 fold increase) | 40 to 60 | C (0.1 to <1 μM) | 40 to 60 | 1 to 5 | D (10 or <20 fold increase) |  |  |  |  |  |  | O=c1ccnc(-c2cc(-c3ccon3)n(Cc3cccc(Cl)c3F)n2)[nH]1 [Compound 81] |
| C (5 to <10 fold increase) | 40 to 60 |  |  | 0.01 to 0.5 | E (20 to 30 fold increase) |  |  |  |  |  |  | O=c1[nH]c(-c2cc(-c3ccon3)n(Cc3ccccc3F)n2)nc(F)c1C(F)(F)F [Compound 85, 6-fluoro-2-(1-(2-fluorobenzyl)-5-(isoxazol-3-yl)-1H-pyrazol-3-yl)-5-(trifluoromethyl)pyrimidin-4(3H)-one] |
| B (2 to <5 fold increase) | 40 to 60 | C (0.1 to <1 μM) | 40 to 60 | 1 to 5 | C (5 to <10 fold increase) |  |  |  |  |  |  | O=c1[nH]c(-c2cc(-c3ncon3)n(Cc3cc(F)ccc3F)n2)ncc1F [Compound 75] |
| C (5 to <10 fold increase) | 60 to 80 | C (0.1 to <1 μM) | 60 to 100 | 0.01 to 0.5 | E (20 to 30 fold increase) |  |  |  |  |  |  | O=c1[nH]c(-c2cc(-c3ccon3)n(Cc3cccc(Cl)c3F)n2)ncc1F [Compound 77] |
| C (5 to <10 fold increase) | 80 to 100 | B (0.01 to <0.1 μM) | 60 to 100 | 0.5 to 1 | E (20 to 30 fold increase) |  |  |  |  |  |  | Nc1ccnc(-c2cc(-c3ccon3)n(Cc3cccc(Cl)c3F)n2)n1 [Compound 78] |
